Reference: the supplement of paper PMC9663587

Columns and labels:
THZ1 [1] = compound: T1, CN(C)C/C=C/C(=O)Nc1ccc(C(=O)Nc2cccc(Nc3ncc(Cl)c(-c4c[nH]c5ccccc45)n3)c2)cc1 [THZ1]; experiment: increase in dead-cell fraction, 72 h; higher = more death;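 note: breast cancer cell lines in 384-well plates, stained with Hoechst plus LIVE/DEAD far red dye and imaged, cells above an LDR intensity threshold counted dead, Hoechst-negative corpses included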
LEE011/Ribociclib = compound: CN(C)C(=O)c1cc2cnc(Nc3ccc(N4CCNCC4)cn3)nc2n1C1CCCC1 [LEE011/Ribociclib]; experiment: as above
BSJ-03-123 = compound: CC(=O)c1c(C)c2cnc(Nc3ccc(N4CCN(CCOCCOCCOCCNC(=O)COc5cccc6c5C(=O)N(C5CCC(=O)NC5=O)C6=O)CC4)cn3)nc2n(C2CCCC2)c1=O [BSJ-03-123]; experiment: as above
Flavopiridol [2] = compound: T2, CN1CC[C@H](c2c(O)cc(O)c3c(=O)cc(-c4ccccc4Cl)oc23)[C@H](O)C1 [Flavopiridol]; experiment: as above
[3] = compound: CCc1cnn2c(NCc3ccc[n+]([O-])c3)cc(N3CCCC[C@H]3CCO)nc12; experiment: as above
Neratinib/HKI272 = compound: CCOc1cc2ncc(C#N)c(Nc3ccc(OCc4ccccn4)c(Cl)c3)c2cc1NC(=O)/C=C/CN(C)C [Neratinib/HKI272]; experiment: as above
[4] = compound: CCN1CCN(Cc2ccc(Nc3ncc(F)c(-c4cc(F)c5nc(C)n(C(C)C)c5c4)n3)nc2)CC1; experiment: as above
[5] = compound: CC(=O)c1c(C)c2cnc(Nc3ccc(N4CCNCC4)cn3)nc2n(C2CCCC2)c1=O; experiment: as above
THZ1 [6] = compound: T1, THZ1; experiment: GR value, 72 h; higher = faster growth (1 = untreated, <0 = killing);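 note: breast cancer and non-malignant breast epithelial lines, nine half-log doses, viable cells counted by Hoechst and LIVE/DEAD dye imaging versus time-zero plates and DMSO controls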
Flavopiridol [7] = compound: T2, Flavopiridol; experiment: as above
THZ531 = compound: CN(C)C/C=C/C(=O)Nc1ccc(C(=O)N2CCC[C@@H](Nc3ncc(Cl)c(-c4c[nH]c5ccccc45)n3)C2)cc1 [THZ531]; experiment: as above
[8] = compound: CC(=O)c1c(C)c2cnc(Nc3ccc(N4CCNCC4)cn3)nc2n(C2CCCC2)c1=O; experiment: as above

CAL120
increase in dead-cell fraction (THZ1 [1]; 0.0001 µM): -0.0036 | increase in dead-cell fraction (THZ1 [1]; 0.0003162 µM): 0.0008 | increase in dead-cell fraction (THZ1 [1]; 0.001 µM): -0.0008 | increase in dead-cell fraction (THZ1 [1]; 0.003162 µM): 0.0033 | increase in dead-cell fraction (THZ1 [1]; 0.01 µM): 0.0048 | increase in dead-cell fraction (THZ1 [1]; 0.03162 µM): 0.0266 | increase in dead-cell fraction (THZ1 [1]; 0.1 µM): 0.0311 | increase in dead-cell fraction (THZ1 [1]; 0.3162 µM): 0.0265 | increase in dead-cell fraction (THZ1 [1]; 1 µM): 0.0708 | increase in dead-cell fraction (LEE011/Ribociclib; 0.001 µM): -0.0051 | increase in dead-cell fraction (LEE011/Ribociclib; 0.003162 µM): -0.0023 | increase in dead-cell fraction (LEE011/Ribociclib; 0.01 µM): 0.0009 | increase in dead-cell fraction (LEE011/Ribociclib; 0.03162 µM): -0.0029 | increase in dead-cell fraction (LEE011/Ribociclib; 0.1 µM): 0 | increase in dead-cell fraction (LEE011/Ribociclib; 0.3162 µM): 0.001 | increase in dead-cell fraction (LEE011/Ribociclib; 1 µM): -0.0006 | increase in dead-cell fraction (LEE011/Ribociclib; 3.162 µM): 0.0024 | increase in dead-cell fraction (LEE011/Ribociclib; 10 µM): 0.0041 | increase in dead-cell fraction (BSJ-03-123; 0.001 µM): -0.0001 | increase in dead-cell fraction (BSJ-03-123; 0.003162 µM): 0.0019 | increase in dead-cell fraction (BSJ-03-123; 0.01 µM): -0.0014 | increase in dead-cell fraction (BSJ-03-123; 0.03162 µM): -0.0007 | increase in dead-cell fraction (BSJ-03-123; 0.1 µM): -0.0013 | increase in dead-cell fraction (BSJ-03-123; 0.3162 µM): 0.0033 | increase in dead-cell fraction (BSJ-03-123; 1 µM): 0.004 | increase in dead-cell fraction (BSJ-03-123; 3.162 µM): 0.0059 | increase in dead-cell fraction (BSJ-03-123; 10 µM): 0.0482 | increase in dead-cell fraction (Flavopiridol [2]; 0.0001 µM): -0.0013 | increase in dead-cell fraction (Flavopiridol [2]; 0.0003162 µM): 0.002 | increase in dead-cell fraction (Flavopiridol [2]; 0.001 µM): 0.0027 | increase in dead-cell fraction (Flavopiridol [2]; 0.003162 µM): -0.0004 | increase in dead-cell fraction (Flavopiridol [2]; 0.01 µM): -0.0008 | increase in dead-cell fraction (Flavopiridol [2]; 0.03162 µM): 0.0016 | increase in dead-cell fraction (Flavopiridol [2]; 0.1 µM): 0.0004 | increase in dead-cell fraction (Flavopiridol [2]; 0.3162 µM): 0.0194 | increase in dead-cell fraction (Flavopiridol [2]; 1 µM): 0.0425 | increase in dead-cell fraction ([3]; 0.0001 µM): -0.0093 | increase in dead-cell fraction ([3]; 0.0003162 µM): -0.0043 | increase in dead-cell fraction ([3]; 0.001 µM): -0.0016 | increase in dead-cell fraction ([3]; 0.003162 µM): 0.0101 | increase in dead-cell fraction ([3]; 0.01 µM): 0.132 | increase in dead-cell fraction ([3]; 0.03162 µM): 0.241 | increase in dead-cell fraction ([3]; 0.1 µM): 0.233 | increase in dead-cell fraction ([3]; 0.3162 µM): 0.25 | increase in dead-cell fraction ([3]; 1 µM): 0.208 | increase in dead-cell fraction (Neratinib/HKI272; 0.0003162 µM): -0.0012 | increase in dead-cell fraction (Neratinib/HKI272; 0.001 µM): -0.0046 | increase in dead-cell fraction (Neratinib/HKI272; 0.003162 µM): -0.0039 | increase in dead-cell fraction (Neratinib/HKI272; 0.01 µM): -0.0045 | increase in dead-cell fraction (Neratinib/HKI272; 0.03162 µM): 0.0031 | increase in dead-cell fraction (Neratinib/HKI272; 0.1 µM): -0.0024 | increase in dead-cell fraction (Neratinib/HKI272; 0.3162 µM): 0.0027 | increase in dead-cell fraction (Neratinib/HKI272; 1 µM): 0.0247 | increase in dead-cell fraction (Neratinib/HKI272; 3.162 µM): 0.571 | increase in dead-cell fraction ([4]; 0.001 µM): -0.0028 | increase in dead-cell fraction ([4]; 0.003162 µM): -0.0021 | increase in dead-cell fraction ([4]; 0.01 µM): 0.0053 | increase in dead-cell fraction ([4]; 0.03162 µM): 0.0134 | increase in dead-cell fraction ([4]; 0.1 µM): 0.0398 | increase in dead-cell fraction ([4]; 0.3162 µM): 0.0603 | increase in dead-cell fraction ([4]; 1 µM): 0.146 | increase in dead-cell fraction ([4]; 3.162 µM): 0.248 | increase in dead-cell fraction ([4]; 10 µM): 0.249 | increase in dead-cell fraction ([5]; 0.0003162 µM): -0.0011 | increase in dead-cell fraction ([5]; 0.001 µM): -0.0036 | increase in dead-cell fraction ([5]; 0.003162 µM): 0.0022 | increase in dead-cell fraction ([5]; 0.01 µM): -0.0072 | increase in dead-cell fraction ([5]; 0.03162 µM): 0.0004 | increase in dead-cell fraction ([5]; 0.1 µM): 0.0047 | increase in dead-cell fraction ([5]; 0.3162 µM): 0.0049 | increase in dead-cell fraction ([5]; 1 µM): 0.0051 | increase in dead-cell fraction ([5]; 3.162 µM): 0.0096 | GR value (THZ1 [6]; 0.0001 µM): 1.02 GR | GR value (THZ1 [6]; 0.0003162 µM): 0.971 GR | GR value (THZ1 [6]; 0.001 µM): 0.979 GR | GR value (THZ1 [6]; 0.003162 µM): 0.92 GR | GR value (THZ1 [6]; 0.01 µM): 0.938 GR | GR value (THZ1 [6]; 0.03162 µM): 0.656 GR | GR value (THZ1 [6]; 0.1 µM): 0.324 GR | GR value (THZ1 [6]; 0.3162 µM): 0.154 GR | GR value (THZ1 [6]; 1 µM): -0.159 GR | GR value (Flavopiridol [7]; 0.0001 µM): 0.984 GR | GR value (Flavopiridol [7]; 0.0003162 µM): 0.934 GR | GR value (Flavopiridol [7]; 0.001 µM): 0.919 GR | GR value (Flavopiridol [7]; 0.003162 µM): 0.917 GR | GR value (Flavopiridol [7]; 0.01 µM): 0.901 GR | GR value (Flavopiridol [7]; 0.03162 µM): 0.88 GR | GR value (Flavopiridol [7]; 0.1 µM): 0.719 GR | GR value (Flavopiridol [7]; 0.3162 µM): 0.342 GR | GR value (Flavopiridol [7]; 1 µM): -0.0548 GR | GR value (THZ531; 0.0001 µM): 1.03 GR | GR value (THZ531; 0.0003162 µM): 1.03 GR | GR value (THZ531; 0.001 µM): 0.934 GR | GR value (THZ531; 0.003162 µM): 1.04 GR | GR value (THZ531; 0.01 µM): 1.06 GR | GR value (THZ531; 0.03162 µM): 0.891 GR | GR value (THZ531; 0.1 µM): 0.589 GR | GR value (THZ531; 0.3162 µM): 0.275 GR | GR value (THZ531; 1 µM): -0.0063 GR | GR value ([8]; 0.0003162 µM): 1.02 GR | GR value ([8]; 0.001 µM): 1.01 GR | GR value ([8]; 0.003162 µM): 0.992 GR | GR value ([8]; 0.01 µM): 0.953 GR | GR value ([8]; 0.03162 µM): 0.815 GR | GR value ([8]; 0.1 µM): 0.756 GR | GR value ([8]; 0.3162 µM): 0.761 GR | GR value ([8]; 1 µM): 0.743 GR | GR value ([8]; 3.162 µM): 0.671 GR
